According to patent US20230240290A1, “USE OF (Z)-3-HEXENYL ESTERS AND METHOD FOR PROTECTING PLANTS AGAINST PESTS” (UNIVERSITAT POLITÈCNICA DE VALÈNCIA, priority 2020, published 2023):
Entries after “also recorded” stand apart in the source; their conditions may differ.

Columns and labels:
[1] = tested on: PR1 (marker gene for the salicylic acid signaling pathway); assay: Transcriptional response of defense gene PR1 in tomato plants exposed to volatiles (laboratory); assay type: in vivo, Solanum lycopersicum cv. Moneymaker; conditions: intact tomato plants exposed 24 h; filter paper, 1:10,000 ester:methanol; n=8
Experimental: Moneymaker tomato plants were used. Two weeks after seed germination, the seedlings were individually transplanted into pots (8×8×8 cm). The plants were kept at 25±2° C., with a constant relative humidity of 65%±5% and a 14:10 h (light:dark) photoperiod. Tomato plants that had not received any pesticide treatment at four weeks of age (about 20 cm tall) were used. All volatiles used were obtained from Sigma-Aldrich (St. Louis, Mo., USA). Each volatile was exposed by using a 2×2 cm piece of filter paper on which 10 μl of a solution containing the corresponding volatile at a concentration of 1:10,000 [(Z)-3-hexenyl ester:methanol] was impregnated as an emitting source of the corresponding volatile (Pérez-Hedo, M. et al. Biocontrol, 63: 203-213 (2018)).
To activate a plant, two pieces of filter paper impregnated with the volatile were placed at the bottom of a 30×30×30 cm plastic cage (BugDorm-1 Insect Tents; MegaView Science Co., Ltd, Taichung, Taiwan) into which the plant was introduced. A control treatment was carried out in which the two pieces of filter paper were impregnated with 10 μl of methanol. Eight repetitions per treatment were performed. The plants of the treatments were kept exposed to the volatile without disturbing for 24 hours in separate and isolated climatic chambers to avoid any interference from the volatiles and were kept at 25±2° C., 65±10% RH, and a 14:10 h (L:D) photoperiod. […]
The methodology followed for extracting and quantifying gene expression was described by Pérez-Hedo et al. Journal of Pest Science 3: 543-554 (2015). The primers used were forward primer: 5′-[…]-3′ (SEQ ID NO: 1) and reverse primer: 5′-[…]-3′ (SEQ ID NO: 2) for the quantification of PR1, forward primer: 5′-[…]-3′ (SEQ ID NO: 3) and reverse primer: 5′-[…]-3′ (SEQ ID NO: 4) for SI-PI-I, and forward primer: 5′-[…]-3′ (SEQ ID NO: 5) and reverse primer: 5′-[…]-3′ (SEQ ID NO: 6) for the SI-PI-II gene. […]

Bemisia tabaci = assay: Y-tube olfactometer preference, exposed vs intact tomato plants; assay type: in vivo; conditions: plants exposed 24 h vs intact plants
Text: (§1) It was studied whether the defensive activation achieved by exposure to (Z)-3-hexenyl propanoate could affect repellency and/or attraction in herbivores that attack tomatoes, the whitefly Bemisia tobaci (Gennadius) (Hemiptera: Aleyrodidae), the thrip Frankliniella occidentalis Pergande (Thysanoptera: Thripidae), the red spider Tetranychus urticae Koch (Acari: Tetranychidae) and the tomato borer, Tuta absoluta (Meyrick) (Lepidoptera: Gelechiidae), and in a natural enemy that has been used as a model organism in this crop, the parasitoid Encarsia formosa Gahan (Hymenoptera: Aphelinidae).
(§2) The last instar nymphs of B. tabaci and the pupae of E. formosa were provided by Koppert Biological Systems, S. L. (Águilas, Murcia, Spain). The recently emerged B. tabaci adults (less than 2 days old) were released into tomato plants inside 60×60×60 cm plastic cages (BugDorm-2) and placed in a climatic chamber at 25±2° C., 65±10% RH and a 14:10 h (L:D) photoperiod in IVIA. Five-day-old B. tabaci adults were used in all the experiments. In the case of E. formosa, the pupae were placed in a Petri dish 9 cm in diameter and allowed to emerge under ambient laboratory conditions (25±2° C.), with a small drop of honey as food. E. formosa females less than two days old were used in all the experiments. F. occidentalis adults came from a brood kept in captivity established in the Valencian Institute of Agrarian Research (Instituto Valenciano de Investigaciones Agrarias, IVIA) in 2010, originally from Campo de Cartagena (Murcia, Spain). The thrips brood was kept in bean pods (Phaseolus vulgaris L.; Fabales: Fabaceae) under the same conditions described above. All the F. occidentalis females used for experimentation were less than five days old. T. urticae adults were obtained from a colony established in IVIA in 2011, which initially came from clementines located in La Plana (Castelló, Spain). The mites were kept on tomato plants in a climatic chamber under the same conditions described above. T. absoluta females were obtained from colonies on tomatoes maintained in a greenhouse at IVIA at 25±4° C., 60±15% RH, and under a natural photoperiod. Newly emerged adult females less than 5 days old were used in all the assays.
(§3) To assess the preference of F. occidentalis, B. tabaci, T. urticae, T. absoluta and E. formosa for tomato plants that were previously exposed for 24 h to (Z)-3-HP relative to intact plants, a Y-shaped olfactometer was used. The plants were exposed to both volatiles as described above using the pieces of filter paper. The olfactometer (Analytical Research Systems, Gainesville, Fla.) consisted of a 2.4 cm in diameter Y-shaped glass tube with a 13.5 cm long base and two arms, each 5.75 cm long. Both side arms were connected via high-density polyethylene (HDPE) tubing to two identical glass jars (5-liter volume), each of which was connected to an air pump that produced a unidirectional humidified airflow at 150 ml/min (Pérez-Hedo et al. Journal of Pest Science 3: 543-554 (2015)).
(§4) For each species, a female was individually introduced into the inlet tube of the olfactometer and observed until she had walked at least 3 cm down one of the arms of choice or until 15 minutes had elapsed. A total of 40 valid replicates were recorded for each species for each pair of odor sources. Each individual was tested only once. […] After recording five responses, the Y-tube was rinsed with soapy water, cleaned with acetone, and allowed to dry for 5 minutes. […]

Encarsia formosa = assay: as above; assay type: in vivo; conditions: plants exposed 24 h vs intact plants
Text: as §1, §2, §3, §4

[2] = tested on: Frankliniella occidentalis; assay: as above; assay type: in vivo; conditions: plants exposed 24 h vs intact plants
Text: as §1, §2, §3, §4

Tetranychus urticae = assay: as above; assay type: in vivo; conditions: plants exposed 24 h vs intact plants
Text: as §1, §2, §3, §4

Tuta absoluta = assay: as above; assay type: in vivo; conditions: plants exposed 24 h vs intact plants
Text: as §1, §2, §3, §4

CC/C=C\CCOC(=O)CC [(Z)-3-hexenyl propanoate]
Transcriptional response of PR1 compared to the control [1]: significantly overexpressed | Response of B. tabaci females to exposed tomato plants (Bemisia tabaci): repel; also recorded: repellent | Response of E. formosa females to exposed tomato plants (Encarsia formosa): more attractive | Response of F. occidentalis females to exposed tomato plants [2]: repel; also recorded: repellent | Response of T. urticae females to exposed tomato plants (Tetranychus urticae): no preference | Response of T. absoluta females to exposed tomato plants (Tuta absoluta): repel; also recorded: repellent
